Results taken from patent US12617757B2, “Compounds and modules for inhibition of pre-miR-21 and their use in treatment of certain cancers” (University of Florida Research Foundation, Incorporated, priority 2019, dated 2026).

Tests used:
MDA-MB-231-Luc cells = assay: In vivo MDA-MB-231 lung metastasis model in NOD/SCID mice; parameters: species or system mouse; conditions: 10 mg/kg; for lung nodules / metastasis to lung: 6 weeks
Method: FIGS. 46A-46C. In vivo mouse weights and Scrambled FISH staining of lung nodules with 5 treatment. […] Treatment of mice with 10 mg/kg of 5 started after 6 days of tumor cell injection. […] Dashed line indicates normalized signal intensity in vehicle samples.
Intravenous delivery of MDA-MB-231 cells to mice is a model of breast cancer metastasis and metastatic behavior can be affected by inhibition of miR-21, S. Yang, J. J. Zhang, X.-Y. Huang, Mouse models for tumor metastasis. Methods Mol. Biol. 928, 221-228 (2012).

[1] = tested on: proteome of MDA-MB-231 cells; assay: Global proteomics profiling (LC-MS/MS) of MDA-MB-231 cells; assay type: cell-based, human; conditions: 50 nM, versus all proteins
Method: Global proteomics profiling using LC-MS/MS. The MDA-MB-231 cells treated with vehicle (DMSO) or 5 (50 nM) were washed with PBS, harvested by scraping, centrifuged at 1500×g for five minutes at 4° C. and then resuspended in PBS. Cells were lysed by sonication and lysate protein concentrations were determined using a Bradford assay (Bio-Rad). Protein samples (40 μg) were denatured with 6 M urea in 50 mM NH4HCO3, reduced with 10 mM tris(2-carboxyethyl)phosphine hydrochloride (TCEP) for 30 minutes, and then alkylated with 25 mM iodoacetamide for 30 minutes in the dark. Samples were diluted to 2 M urea with 50 mM NH4HCO3, and digested with trypsin (2 μL of 0.5 μg/μL) in the presence of 1 mM CaCl2) for 12 hours at 37° C. […] Samples were analyzed by LC-MS/MS (see below) and the MS data was processed with MaxQuant and Proteome Discoverer (see below).
LC-MS/MS analysis: Peptides were resuspended in water with 0.1% formic acid (FA) and analyzed using an EASY-nLC 1200 nano-UHPLC coupled to Q Exactive HF-X Quadrupole-Orbitrap mass spectrometer (Thermo Scientific). […]
MaxQuant analysis: The MS data was analyzed with MaxQuant (V1.6.1.0)^27 and searched against the human proteome (Uniprot) and a common list of contaminants (included in MaxQuant). […] The minimum peptide length was set to 6 amino acids and peptide re-quantification and label-free quantification (MaxLFQ) were enabled. […]

[2] = tested on: Ifng, OAS1, RIG-I, MDA5 mRNAs; assay: RT-qPCR of antiviral innate immune response mRNAs in MDA-MB-231 cells; assay type: cell-based, human
Method: Cell culture compound treatment and transfection. For treatment with compounds, stocks in DMSO or water were diluted in growth media and added to cells for 24-72 h. For transfection of plasmid DNA to overexpress the miR-21 hairpin precursor in pcDNA3.1 (Addgene 21114) or pcDNA3-RNaseL (R. H. Silverman, Cleveland Clinic^24) in 24-well plates, Lipofectamine 2000 was used according to the manufacturer's protocol. After transfection, the medium was removed and replaced with growth medium containing compound prepared as described above. For transfection of a control (Santa Cruz Biotechnology: sc-37007) or RNase L targeting siRNA (Santa Cruz Biotechnology: sc-45965), Lipofectamine RNAiMAX Reagent was used for transfection of oligonucleotides, including 2′-5′ A4, according to the manufacturer's protocol.

pre-miR-21 WT RNA = assay: In vitro Dicer processing of pre-miR-21 WT; assay type: biochemical
Excerpt: (§1) In vitro Dicer processing. […] Cleavage products were resolved on a denaturing 15% polyacrylamide gel, which was imaged using a Molecular Dynamics Typhoon phosphorimager and quantified with Bio-Rad's QuantityOne software, normalizing to full length RNA.

[3] = tested on: miR-21-5p in HEK293T cells; assay: RT-qPCR of mature miR-21-5p in HEK293T cells (dimer linker screening); assay type: cell-based; conditions: n=3, n=4 and 1
pre-miR-21 BP RNA = assay: In vitro Dicer processing of pre-miR-21 BP; assay type: biochemical
Excerpt: as §1

Compound | weight changes compared to vehicle-treated mice (MDA-MB-231-Luc cells; over 42 days, NOD/SCID mice) | PDCD4 in lung nodule tissue sections (MDA-MB-231-Luc cells; q.o.d.) | hematoxylin and eosin (HE) staining of lung tissue (MDA-MB-231-Luc cells; q.o.d.) | mature miR-21 in lung nodule tissue (FISH) (MDA-MB-231-Luc cells; q.o.d.) | pre-miR-21 in lung nodule tissue (FISH) (MDA-MB-231-Luc cells; q.o.d.) | lung nodules / metastasis to lung (MDA-MB-231-Luc cells; q.o.d.) | lung nodules / metastasis to lung (MDA-MB-231-Luc cells; q.o.d., listed as Formula 5) | PDCD4 in lung nodule tissue sections (MDA-MB-231-Luc cells; q.o.d., listed as Formula 5) | mature miR-21 in lung nodule tissue (FISH) (MDA-MB-231-Luc cells; q.o.d., listed as Formula 5) | pre-miR-21 in lung nodule tissue (FISH) (MDA-MB-231-Luc cells; q.o.d., listed as Formula 5) | tolerability (MDA-MB-231-Luc cells; intraperitoneal injection, q.o.d.) | median log fold-change of predicted downstream protein targets of miR-21 [1] | levels of mRNAs associated with the antiviral innate immune response ([2]; 5 50 nM, 2′-5′ A4 500 nM transfected) | modulation of innate immunity biomarkers (RT-qPCR and ELISA) ([2]; MDA-MB-231) | inhibition of / protection from Dicer processing (pre-miR-21 WT RNA) | inhibition of miR-21 levels, dose response of linker lengths [3] | protection from Dicer processing (pre-miR-21 BP RNA)
CCCN(CC(=O)N(CCC)CC(=O)N(CCC)CC(=O)N(CC(=O)NCCOCCOCCOCCOc1ccc(C=C2SC(Nc3ccccc3)=C(C(=O)OCC)C2=O)cc1O)Cc1cn(CCCNC(=O)CCCOc2ccc(-c3nc4cc(-c5ccc(N6CCN(C)CC6)cc5)ccc4[nH]3)cc2)nn1)C(=O)CN(Cc1cn(CCCNC(=O)CCCOc2ccc(-c3nc4cc(-c5ccc(N6CCN(C)CC6)cc5)ccc4[nH]3)cc2)nn1)C(C)=O [Compound 5] | did not cause significant weight changes | increased PDCD4 levels | decreased hematoxylin and eosin (HE) staining | decreased mature miR-21 | decreased | decreased lung nodules | inhibited breast cancer metastasis to lung | increase in PDCD4 protein expression | diminished | diminished | well tolerated | significantly upregulated relative to all proteins | No upregulation | No significant changes were observed | – | – | –
CCCN(CC(=O)N(CCC)CC(=O)N(CCC)CC(=O)N(CC(N)=O)Cc1cn(CCCNC(=O)CCCOc2ccc(-c3nc4cc(-c5ccc(N6CCN(C)CC6)cc5)ccc4[nH]3)cc2)nn1)C(=O)CNCc1cn(CCCNC(=O)CCCOc2ccc(-c3nc4cc(-c5ccc(N6CCN(C)CC6)cc5)ccc4[nH]3)cc2)nn1 [Compound 2] | – | – | – | – | – | – | – | – | – | – | – | – | – | – | Protection with compound is observed at U23 (boxes marked with arrows) and U26 and U27 | most significantly inhibited miR-21 levels | Protection with compound is observed at U26 and U27
